In experiment [1] the test system is primary human fibroblasts derived from IPF patients (LL29 cells), α-smooth muscle actin (αSMA). The experiment is described as follows: Inhibition of the fibrotic process: TGF-β1-treated primary human fibroblasts from IPF patients, αSMA staining. The format is cell-based. The conditions noted are these: Fibroblast, 96 h, 4 days; for EC50: LL29 fibroblasts from IPF patients, TGF-β1 20 ng/mL, inhibition of fibrotic process; for inhibition at 10 µM: LL29 fibroblasts, TGF-β1 treated, read-out: percent inhibition at 10 μM (given for EC50 of >10 μM). The procedure, abridged: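 EC50 values come from non-linear fits of the αSMA-positive percentage among SYTOX-excluded live cells, normalized to TGF-β1 plus DMSO controls, or appear as % inhibition at 10 μM when above 10 μM. Fibrosis was induced in IPF-derived LL29 fibroblasts by 20 ng/mL TGF-β1 over 4 days, with 1:2 compound dilutions from 10 μM.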

Experiment [2] concerns IL-6 (THP-1 cells). The experiment is described as follows: Inhibition of IL-6 in LPS-stimulated THP-1 monocytes (HTRF). The format is cell-based. The conditions noted are these: Homo sapiens; for EC50: LPS 500 ng/mL, IL-6 by HTRF; for inhibition at 10 µM: LPS stimulated, IL-6, at 10 μM, read-out: percent inhibition at 10 μM (given for EC50 of >10 μM). The procedure, abridged:
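IL-6 release was read as the HTRF 665/620 nm ratio after 22 h of 500 ng/mL LPS at 37 °C. Before stimulation, THP-1 cells kept 24 h in 1% FBS were exposed 2 h to a 10-point 1:3 compound series starting at 10 μM, in 0.1% DMSO. Four-parameter EC50s came from DMSO-normalized duplicates, with % inhibition at 10 μM reported beyond 10 μM.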
In general terms: TR-FRET usually uses a lanthanide donor and a delayed reading to cut background.

SMILES strings stand for the structures.

As usually defined, the EC50 is the concentration that produces a half-maximal response. Low readings indicate greater potency, high ones weaker potency. Take `Cc1ccncc1-c1ccc2[nH]nc(-c3nc4c(-c5cc(F)cc(CNS(C)(=O)=O)c5)ccnc4[nH]3)c2n1` [Compound 481, N-(3-fluoro-5-(2-(5-(4-methylpyridin-3-yl)-1H-pyrazolo[4,3-b]pyridin-3-yl)-3H-imidazo[4,5-b]pyridin-7-yl)benzyl)methanesulfonamide]: the EC50 in experiment [1] stood at 5.19 µM; in experiment [2] it was 1.03 µM.
The inhibition is how much of the control response was suppressed. `CS(=O)(=O)NCc1cc(F)cc(-c2ccnc3[nH]c(-c4n[nH]c5ccc(-c6cncc(CNCc7ccccc7)c6)nc45)nc23)c1` [Compound 500, N-(3-(2-(5-(5-((Benzylamino)methyl)pyridin-3-yl)-1H-pyrazolo[4,3-b]pyridin-3-yl)-3H-imidazo[4,5-b]pyridin-7-yl)-5-fluorobenzyl)methanesulfonamide]: the EC50 was 9.26 µM in experiment [1] and over 10 µM in experiment [2]. The inhibition at 10 µM in experiment [2] was found to be 45.6%.
Turning to `Fc1cccc(-c2ccnc3[nH]c(-c4n[nH]c5ccc(C6=CCNCC6)nc45)nc23)c1` [Compound 506, 3-(7-(3-fluorophenyl)-3H-imidazo[4,5-b]pyridin-2-yl)-5-(1,2,3,6-tetrahydropyridin-4-yl)-1H-pyrazolo[4,3-b]pyridine], the EC50 in experiment [1] and in experiment [2] was over 10 µM in each case. For the same molecule, the inhibition at 10 µM is 0% in experiment [1] and 27.9% in experiment [2].
With `Cc1ncc(-c2ccc3[nH]nc(-c4nc5c(-c6cccc(F)c6)ccnc5[nH]4)c3n2)n1C` [Compound 509, 5-(1,2-dimethyl-1H-imidazol-5-yl)-3-(7-(3-fluorophenyl)-3H-imidazo[4,5-b]pyridin-2-yl)-1H-pyrazolo[4,3-b]pyridine], in experiment [1], the EC50 is over 10 µM and the inhibition at 10 µM worked out at 0%. Besides, in experiment [2], the EC50 was over 10 µM and the inhibition at 10 µM is 17.5%.
Turning to `NC1CN(c2cncc(-c3ccc4[nH]nc(-c5nc6c(-c7cccc(F)c7)ccnc6[nH]5)c4n3)n2)C1` [Compound 510, 1-(6-(3-(7-(3-fluorophenyl)-3H-imidazo[4,5-b]pyridin-2-yl)-1H-pyrazolo[4,3-b]pyridin-5-yl)pyrazin-2-yl)azetidin-3-amine], the EC50 in experiment [1] was over 10 µM; in experiment [2] it was 0.023 µM. In addition, the inhibition at 10 µM in experiment [1] came to 0%.
On to `Fc1cccc(-c2ccnc3[nH]c(-c4n[nH]c5ccc(-c6cncc(OCCN7CCCC7)c6)nc45)nc23)c1` [Compound 514, 3-(7-(3-Fluorophenyl)-3H-imidazo[4,5-b]pyridin-2-yl)-5-(5-(2-(pyrrolidin-1-yl)ethoxy)pyridin-3-yl)-1H-pyrazolo[4,3-b]pyridine], for which, in experiment [1], the EC50 was over 10 µM and the inhibition at 10 µM worked out at 0%. Moreover, in experiment [2], the EC50 was over 10 µM and the inhibition at 10 µM worked out at 49.5%.
With `CN(C)CCOc1cncc(-c2ccc3[nH]nc(-c4nc5c(-c6cccc(F)c6)ccnc5[nH]4)c3n2)c1` [Compound 515, 2-((5-(3-(7-(3-fluorophenyl)-3H-imidazo[4,5-b]pyridin-2-yl)-1H-pyrazolo[4,3-b]pyridin-5-yl)pyridin-3-yl)oxy)-N,N-dimethylethan-1-amine], the figures for the EC50 in experiment [1] and in experiment [2] were 2.61 µM and 5.54 µM, respectively.
With `COc1cncc(-c2ccc3[nH]nc(-c4nc5c(-c6cccc(F)c6)ccnc5[nH]4)c3n2)c1` [Compound 516, 3-(7-(3-fluorophenyl)-3H-imidazo[4,5-b]pyridin-2-yl)-5-(5-methoxypyridin-3-yl)-1H-pyrazolo[4,3-b]pyridine], the EC50 in experiment [1] was 1.57 µM; in experiment [2] it was 8.23 µM.
As to `Oc1cncc(-c2ccc3[nH]nc(-c4nc5c(-c6cccc(F)c6)ccnc5[nH]4)c3n2)c1` [Compound 517, 5-(3-(7-(3-fluorophenyl)-3H-imidazo[4,5-b]pyridin-2-yl)-1H-pyrazolo[4,3-b]pyridin-5-yl)pyridin-3-ol], the EC50 in experiment [1] came out at 1.15 µM; in experiment [2] it was 1.54 µM.
Take `Fc1cccc(-c2ccnc3[nH]c(-c4n[nH]c5ccc(-c6cnccn6)nc45)nc23)c1` [Compound 520, 3-(7-(3-fluorophenyl)-3H-imidazo[4,5-b]pyridin-2-yl)-5-(pyrazin-2-yl)-1H-pyrazolo[4,3-b]pyridine]: the EC50 was 5.33 µM in experiment [1] and over 10 µM in experiment [2]. Also, the inhibition at 10 µM in experiment [2] was determined as 19.5%.
Molecule `CN(C)CC(=O)Nc1cncc(-c2ccc3[nH]nc(-c4nc5c(-c6cccc(F)c6)ccnc5[nH]4)c3n2)c1` [Compound 969, 2-(dimethylamino)-N-(5-(3-(7-(3-fluorophenyl)-3H-imidazo[4,5-b]pyridin-2-yl)-1H-pyrazolo[4,3-b]pyridin-5-yl)pyridin-3-yl)acetamide] had a concentration giving a half-maximal response (EC50) in experiment [1] of 4.93 µM. Besides, in experiment [2], the EC50 is over 10 µM and the inhibition at 10 µM came to 26.3%.
The matching figures for `COc1cccc(-c2ccnc3[nH]c(-c4n[nH]c5ccc(-c6cccnc6)nc45)nc23)c1` [Compound 994, 3-(7-(3-methoxyphenyl)-3H-imidazo[4,5-b]pyridin-2-yl)-5-(pyridin-3-yl)-1H-pyrazolo[4,3-b]pyridine]: 0.59 µM, over 10 µM and 50.2%.
Take `COc1cccc(-c2ccnc3[nH]c(-c4n[nH]c5ccc(-c6cncc(NC(=O)Cc7ccccc7)c6)nc45)nc23)c1` [Compound 1000, N-(5-(3-(7-(3-methoxyphenyl)-3H-imidazo[4,5-b]pyridin-2-yl)-1H-pyrazolo[4,3-b]pyridin-5-yl)pyridin-3-yl)-2-phenylacetamide]: in experiment [1], the EC50 was over 10 µM and the inhibition at 10 µM turned out to be 23.4%. In experiment [2], the EC50 is over 10 µM and the inhibition at 10 µM came out at 12.3%.
In experiment [1], `COc1cccc(-c2ccnc3[nH]c(-c4n[nH]c5ccc(-c6cncc(NC(=O)CC(C)(C)C)c6)nc45)nc23)c1` [Compound 1006, N-(5-(3-(7-(3-methoxyphenyl)-3H-imidazo[4,5-b]pyridin-2-yl)-1H-pyrazolo[4,3-b]pyridin-5-yl)pyridin-3-yl)-3,3-dimethylbutanamide] displayed an EC50 of 2.49 µM. For the same molecule, in experiment [2], the concentration for a half-maximal effect (EC50) was over 10 µM and the inhibition at 10 µM amounted to 32.7%.
The molecule `COc1cccc(-c2ccnc3[nH]c(-c4n[nH]c5ccc(-c6cncc(NC(=O)C7CCCCC7)c6)nc45)nc23)c1` [Compound 1012, N-(5-(3-(7-(3-Methoxyphenyl)-3H-imidazo[4,5-b]pyridin-2-yl)-1H-pyrazolo [4,3-b]pyridin-5-yl)pyridin-3-yl)cyclohexanecarboxamide] displayed an EC50 in experiment [1] of 1.17 µM. In addition, in experiment [2], the EC50 was over 10 µM and the inhibition at 10 µM was 43.3%.
`CC(C)CC(=O)Nc1cncc(-c2ccc3[nH]nc(-c4nc5c(-c6ccc(Cl)s6)ccnc5[nH]4)c3n2)c1` [Compound 1037, N-(5-(3-(7-(5-chlorothiophen-2-yl)-3H-imidazo[4,5-b]pyridin-2-yl)-1H-pyrazolo [4,3-b]pyridin-5-yl)pyridin-3-yl)-3-methylbutanamide]: the figures for the EC50 in experiment [1] and in experiment [2] were 0.511 µM and 5.05 µM, respectively.
Take `CC(C)(C)C(=O)Nc1cncc(-c2ccc3[nH]nc(-c4nc5c(-c6ccc(Cl)s6)ccnc5[nH]4)c3n2)c1` [Compound 1043, N-(5-(3-(7-(5-chlorothiophen-2-yl)-3H-imidazo[4,5-b]pyridin-2-yl)-1H-pyrazolo [4,3-b]pyridin-5-yl)pyridin-3-yl)pivalamide]: the EC50 was 0.419 µM in experiment [1] and over 10 µM in experiment [2]. Besides, the inhibition at 10 µM in experiment [2] was determined as 7.6%.
In the case of `Clc1ccc(-c2ccnc3[nH]c(-c4n[nH]c5ccc(-c6cncc(CN7CCCC7)c6)nc45)nc23)s1` [Compound 1049, 3-(7-(5-chlorothiophen-2-yl)-3H-imidazo[4,5-b]pyridin-2-yl)-5-(5-(pyrrolidin-1-ylmethyl)pyridin-3-yl)-1H-pyrazolo[4,3-b]pyridine], the EC50 is 0.681 µM in experiment [1] and over 10 µM in experiment [2]. The inhibition at 10 µM in experiment [2] was 36.2%.
In turn, `O=C(Nc1cncc(-c2ccc3[nH]nc(-c4nc5c(-c6ccc(Cl)s6)ccnc5[nH]4)c3n2)c1)C1CCC1` [Compound 1056, N-(5-(3-(7-(5-chlorothiophen-2-yl)-3H-imidazo[4,5-b]pyridin-2-yl)-1H-pyrazolo [4,3-b]pyridin-5-yl)pyridin-3-yl)cyclobutanecarboxamide] registered an EC50 in experiment [1] of 0.284 µM. Moreover, in experiment [2], the EC50 is over 10 µM and the inhibition at 10 µM stood at 40.6%.
Consider `NC1CN(c2cncc(-c3ccc4[nH]nc(-c5nc6c(-c7ccc(Cl)s7)ccnc6[nH]5)c4n3)n2)C1` [Compound 1068, 1-(6-(3-(7-(5-Chlorothiophen-2-yl)-3H-imidazo[4,5-b]pyridin-2-yl)-1H-pyrazolo[4,3-b]pyridin-5-yl)pyrazin-2-yl)azetidin-3-amine], for which the EC50 was 0.938 µM in experiment [1] and 1.77 µM in experiment [2].
